In patent US20160238617A1, “[…] AND METHODS […] TO INNER EAR DISORDERS” (THE UNIVERSITY OF CONNECTICUT, priority 2015, published 2016):

Tests used:
prestin [1] = assay: serum prestin concentration in mice treated with cisplatin; format: in vivo; conditions: same time course up to two weeks after exposure
Method: Although the hearing threshold measured by ABR was unaffected, prestin levels continued to change after exposure to cisplatin.
The ototoxin drug cisplatin (a commonly used chemotherapeutic agent) was administered and then functional assessment of hearing and measurement of prestin were carried out at several intervals up to two weeks after exposure. Hearing was assessed using a standard testing protocol called click-evoked auditory brainstem response (ABR) (FIG. 13).

prestin [2] = assay: serum prestin level in cisplatin-treated rats; format: in vivo; conditions: 72 hours after treatment, compared to controls
Text: Rats are more vulnerable to ototoxic damage than mice.

**Q.** With N.N.[Cl][Pt][Cl] [cisplatin] as the compound, how does the “serum concentrations of prestin” value (prestin [1]) read?
**A.** increasing

**Q.** And the serum prestin level (prestin [2])?
**A.** elevated
